Measured values from PubChem BioAssay AID330 (DTP/NCI, 2004).
Several values for one entry are separate records, joined by “and”; a condition that tells them apart may be missing. Equal values may be shown once. Toxic doses and inconclusive results are not listed.

System: P388 leukemia ip, CD2F1 mice, survival T/C
Experiment: NCI In Vivo Anticancer Drug Screen. Data for tumor model P388 Leukemia (intraperitoneal) in CD2F1 (CDF1) mice
Settings: endpoint: median survival time, higher = longer survival
In short: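 Mice carrying the transplanted tumor received test compound or vehicle. Survival was recorded in each group, and the value is the treated-group measurement divided by that of the vehicle-treated control group.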

[1] = dose: 12.5 mg/kg/injection, schedule: Q01DX009 (ip), vehicle: saline
[2] = dose: 25.0 mg/kg/injection, schedule: Q01DX009 (ip), vehicle: saline
[3] = dose: 50.0 mg/kg/injection, schedule: Q01DX009 (ip), vehicle: saline
[4] = dose: 60.0 mg/kg/injection, schedule: Q01DX005 (ip), vehicle: saline with Tween-80
[5] = dose: 120.0 mg/kg/injection, schedule: Q01DX005 (ip), vehicle: saline with Tween-80
[6] = dose: 240.0 mg/kg/injection, schedule: Q01DX005 (ip), vehicle: saline with Tween-80
[7] = dose: 100.0 mg/kg/injection, schedule: Q04DX002 (ip), vehicle: saline
[8] = dose: 200.0 mg/kg/injection, schedule: Q04DX002 (ip), vehicle: saline
[9] = dose: 100.0 mg/kg/injection, schedule: Q01DX009 (ip), vehicle: saline
[10] = dose: 200.0 mg/kg/injection, schedule: Q01DX009 (ip), vehicle: saline
[11] = dose: 100.0 mg/kg/injection, schedule: Q04DX003 (ip), vehicle: saline with Tween-80
[12] = dose: 200.0 mg/kg/injection, schedule: Q04DX003 (ip), vehicle: saline with Tween-80
[13] = dose: 400.0 mg/kg/injection, schedule: Q04DX003 (ip), vehicle: saline with Tween-80
[14] = dose: 50.0 mg/kg/injection, schedule: Q01DX005 (ip), vehicle: Klucel (hydroxypropylcellulose) (HPC)
[15] = dose: 100.0 mg/kg/injection, schedule: Q01DX005 (ip), vehicle: Klucel (hydroxypropylcellulose) (HPC)

For `C1=CCC23COCC2(C1)CSC3` (stereo unspecified), the T/C [1] was 96 % of control, the T/C [2] was 92 % of control and the T/C [3] was 99 % of control.

In the case of `CCOC(=O)C(NC(C)=O)(C(=O)OCC)c1ccc([N+](=O)[O-])cn1`, the T/C (dose: 25.0 mg/kg/injection, schedule: Q01DX009 (ip), vehicle: other) is reported as 92 % of control, the T/C (dose: 50.0 mg/kg/injection, schedule: Q01DX009 (ip), vehicle: other) is reported as 90 % of control and the T/C (dose: 100.0 mg/kg/injection, schedule: Q01DX009 (ip), vehicle: other) is reported as 95 % of control. For the same molecule, the T/C (dose: 200.0 mg/kg/injection, schedule: Q01DX009 (ip), vehicle: other) was 95 % of control and the T/C (dose: 400.0 mg/kg/injection, schedule: Q01DX009 (ip), vehicle: other) was 102 % of control.

In the case of `CN(C)c1ccc(/C=c2\[nH]c(=O)/c(=C\c3ccc(N(C)C)cc3)[nH]c2=O)cc1`, the T/C (dose: 12.5 mg/kg/injection, schedule: Q01DX001 (ip), vehicle: saline with Tween-80) is reported as 97 % of control, the T/C (dose: 25.0 mg/kg/injection, schedule: Q01DX001 (ip), vehicle: saline with Tween-80) is reported as 99 % of control and the T/C (dose: 50.0 mg/kg/injection, schedule: Q01DX001 (ip), vehicle: saline with Tween-80) is reported as 99 % of control. The T/C (dose: 50.0 mg/kg/injection, schedule: Q01DX009 (ip), vehicle: saline with Tween-80) was 98 % of control, the T/C (dose: 100.0 mg/kg/injection, schedule: Q01DX001 (ip), vehicle: saline with Tween-80) was 99 % of control and the T/C (dose: 100.0 mg/kg/injection, schedule: Q01DX009 (ip), vehicle: saline with Tween-80) was 90 % of control. The T/C (dose: 200.0 mg/kg/injection, schedule: Q01DX009 (ip), vehicle: saline with Tween-80) was 87 % of control and the T/C (dose: 400.0 mg/kg/injection, schedule: Q01DX009 (ip), vehicle: saline with Tween-80) was 90 % of control.

`CC(C)(C)OOC(=O)Cc1ccccc1` was tested, and the T/C [4] was 104 % of control, the T/C [5] was 122 % of control and the T/C [6] was 122 % of control.

With `CC(CN(C)C)C(=O)/C=C/c1ccc(F)cc1` (stereo unspecified) the T/C (dose: 30.0 mg/kg/injection, schedule: Q01DX005 (ip), vehicle: saline) was 100 % of control and the T/C (dose: 60.0 mg/kg/injection, schedule: Q01DX005 (ip), vehicle: saline) was 101 % of control and 110 % of control.

`CC(C)(C)c1ccc(S(=O)(=O)C[CH2][Sn]([CH3])([CH3])[CH3])cc1` was tested, and the T/C (dose: 6.25 mg/kg/injection, schedule: Q01DX009 (ip), vehicle: saline) was 104 % of control and the T/C [1] was 87 % of control.

`CC(C)C(=O)CC(=O)CCC(=O)Nc1cccc(Cl)c1` was tested, and the T/C [4] was 105 % of control, the T/C [5] was 102 % of control and the T/C [6] was 107 % of control.

With `Cc1ccc(S(=O)(=O)N/N=c2\ccc3ccccc3n2C)cc1` the T/C [7] was 100 % of control, the T/C [8] was 99 % of control and the T/C (dose: 400.0 mg/kg/injection, schedule: Q04DX002 (ip), vehicle: saline) was 101 % of control.

In the case of `Cc1onc(-c2c(Cl)cccc2Cl)c1C(=O)Nc1ccc(Cl)c(Cl)c1Cl`, the T/C (dose: 60.0 mg/kg/injection, schedule: Q01DX005 (ip), vehicle: Klucel (hydroxypropylcellulose) (HPC)) is reported as 96 % of control, the T/C (dose: 120.0 mg/kg/injection, schedule: Q01DX005 (ip), vehicle: Klucel (hydroxypropylcellulose) (HPC)) is reported as 93 % of control and the T/C (dose: 240.0 mg/kg/injection, schedule: Q01DX005 (ip), vehicle: Klucel (hydroxypropylcellulose) (HPC)) is reported as 92 % of control.

`Cc1cc2oc(=O)c3c(c2c(O)c1CN1CCCC1)CCCC3` was tested, and the T/C (dose: 16.0 mg/kg/injection, schedule: Q01DX009 (ip), vehicle: Klucel (hydroxypropylcellulose) (HPC)) was 97 % of control, the T/C (dose: 32.0 mg/kg/injection, schedule: Q01DX009 (ip), vehicle: Klucel (hydroxypropylcellulose) (HPC)) was 101 % of control and the T/C (dose: 64.0 mg/kg/injection, schedule: Q01DX009 (ip), vehicle: Klucel (hydroxypropylcellulose) (HPC)) was 103 % of control. The T/C (dose: 128.0 mg/kg/injection, schedule: Q01DX009 (ip), vehicle: Klucel (hydroxypropylcellulose) (HPC)) was 97 % of control.

With `COc1ccc(N=Cc2ccc(C=Nc3ccc(OC)cc3OC)cc2)c(OC)c1` the T/C [3] was 93 % of control, the T/C [9] was 96 % of control and the T/C [10] was 91 % of control.

In the case of `COc1cc2c(cc1OC)CC[N+](CCC[N+](C)(C)C)=C2`, the T/C [1] is reported as 104 % of control, the T/C [2] is reported as 95 % of control and the T/C [3] is reported as 97 % of control. For the same molecule, the T/C [9] was 89 % of control.

`COc1ccc(/C=C/C(=O)c2ccc(OC)c(OC)c2)cc1OC` was tested, and the T/C [11] was 90 % of control, the T/C [12] was 95 % of control and the T/C [13] was 95 % of control.

`CC(=O)Nc1nc(N(C)C)nc(N(C)C)n1` was tested, and the T/C (dose: 50.0 mg/kg/injection, schedule: Q04DX002 (ip), vehicle: saline) was 109 % of control, the T/C [7] was 107 % of control and the T/C [8] was 114 % of control.

For `CCCCCCCCCCCCCC(=O)Nc1ncc([N+](=O)[O-])s1`, the T/C (dose: 50.0 mg/kg/injection, schedule: Q01DX009 (ip), vehicle: Klucel (hydroxypropylcellulose) (HPC)) was 94 % of control, the T/C (dose: 100.0 mg/kg/injection, schedule: Q01DX009 (ip), vehicle: Klucel (hydroxypropylcellulose) (HPC)) was 94 % of control and the T/C (dose: 200.0 mg/kg/injection, schedule: Q01DX009 (ip), vehicle: Klucel (hydroxypropylcellulose) (HPC)) was 100 % of control.

In the case of `CCC(=O)Nc1ccc(C(=O)C(C)Br)cc1` (stereo unspecified), the T/C (dose: 6.25 mg/kg/injection, schedule: Q01DX009 (ip), vehicle: saline with Tween-80) is reported as 108 % of control, the T/C (dose: 12.5 mg/kg/injection, schedule: Q01DX009 (ip), vehicle: saline with Tween-80) is reported as 115 % of control and the T/C (dose: 25.0 mg/kg/injection, schedule: Q01DX009 (ip), vehicle: saline with Tween-80) is reported as 117 % of control.

For `CC1(C)OS(=O)(=O)C=C1Br`, the T/C (dose: 100.0 mg/kg/injection, schedule: Q04DX003 (ip), vehicle: saline) was 96 % of control, the T/C (dose: 200.0 mg/kg/injection, schedule: Q04DX003 (ip), vehicle: saline) was 110 % of control and the T/C (dose: 400.0 mg/kg/injection, schedule: Q04DX003 (ip), vehicle: saline) was 103 % of control.

For `c1ccc2c(c1)NC(NC1Nc3ccccc3N1)N2`, the T/C (dose: 30.0 mg/kg/injection, schedule: Q01DX005 (ip), vehicle: saline with Tween-80) was 91 % of control and the T/C [4] was 86 % of control and 97 % of control.

`CS(=O)(=O)NCCNS(C)(=O)=O` was tested, and the T/C [11] was 106 % of control, the T/C [12] was 103 % of control and the T/C [13] was 103 % of control.

`Cc1oc2c(c(C)nn2-c2ccccc2)c(=O)c1Cl` was tested, and the T/C [14] was 92 % of control, the T/C [15] was 106 % of control and the T/C (dose: 200.0 mg/kg/injection, schedule: Q01DX005 (ip), vehicle: Klucel (hydroxypropylcellulose) (HPC)) was 108 % of control.

`O=C(CNC(=O)c1ccccc1)N/N=C/c1ccco1` was tested, and the T/C [4] was 95 % of control, the T/C [5] was 101 % of control and the T/C [6] was 100 % of control.

With `CCOC(=O)c1nc[nH]c1C` the T/C (dose: 50.0 mg/kg/injection, schedule: Q01DX005 (ip), vehicle: saline with Tween-80) was 100 % of control, the T/C (dose: 100.0 mg/kg/injection, schedule: Q01DX005 (ip), vehicle: saline with Tween-80) was 101 % of control and the T/C (dose: 200.0 mg/kg/injection, schedule: Q01DX005 (ip), vehicle: saline with Tween-80) was 100 % of control.

For `CC(OS(C)(=O)=O)/C(Br)=C(/Br)C(C)OS(C)(=O)=O` (stereo unspecified), the T/C (dose: 100.0 mg/kg/injection, schedule: Q01DX001 (ip), vehicle: Klucel (hydroxypropylcellulose) (HPC)) was 158 % of control, the T/C (dose: 200.0 mg/kg/injection, schedule: Q01DX001 (ip), vehicle: Klucel (hydroxypropylcellulose) (HPC)) was 204 % of control and the T/C (dose: 400.0 mg/kg/injection, schedule: Q01DX001 (ip), vehicle: Klucel (hydroxypropylcellulose) (HPC)) was 230 % of control.

In the case of `C[n+]1c2ccccc2cc2[nH]c3ccccc3c21`, the T/C (dose: 6.25 mg/kg/injection, schedule: Q01DX005 (ip), vehicle: Klucel + Tween-80) is reported as 105 % of control.

In the case of `NC(=S)SCCC(=O)N1CCCCC1`, the T/C (dose: 25.0 mg/kg/injection, schedule: Q04DX002 (ip), vehicle: Klucel (hydroxypropylcellulose) (HPC)) is reported as 101 % of control, the T/C (dose: 50.0 mg/kg/injection, schedule: Q04DX002 (ip), vehicle: Klucel (hydroxypropylcellulose) (HPC)) is reported as 95 % of control and the T/C (dose: 100.0 mg/kg/injection, schedule: Q04DX002 (ip), vehicle: Klucel (hydroxypropylcellulose) (HPC)) is reported as 104 % of control and 95 % of control.

With `C/C=C(\C)C(=O)N/N=C\C=C\c1ccccc1` the T/C (dose: 25.0 mg/kg/injection, schedule: Q01DX005 (ip), vehicle: Klucel (hydroxypropylcellulose) (HPC)) was 89 % of control, the T/C [14] was 92 % of control and the T/C [15] was 89 % of control.

With `CCOC(CCC1(C)C(=O)CCC1=O)(OCC)OCC` the T/C [4] was 106 % of control, the T/C [5] was 106 % of control and the T/C [6] was 99 % of control.

In the case of `Cc1ccc(C2OC(c3ccc(C)cc3)C(C)C(=O)C2C)cc1` (stereo unspecified), the T/C [3] is reported as 90 % of control, the T/C [9] is reported as 94 % of control and the T/C [10] is reported as 99 % of control.

For `O=C1c2ccccc2N(C(=O)CN2CCOCC2)CN1c1ccccc1`, the T/C [3] was 98 % of control, the T/C [9] was 100 % of control and the T/C [10] was 98 % of control.
